Measurements: patent US12637513B2, “Method of treating cancer by administering an inhibitor of erythropoietin receptor activity comprising either erythropoietin receptor or erythropoietin protein” (ImmunEdge, Inc., priority 2022, dated 2026)

How the values were obtained:
[1] = target: Glucosidase; conditions: target Glucosidase; cited from earlier work
[2] = test system: CD11c^IntMHCII^HighXCR1^+ cDC1s / OT-II cells; assay: In vitro Ag-specific Treg induction: pLN cDC1s loaded with Ova-thy cells and naïve OT-II cells; format: cell-based, mouse; conditions: untreated cells 25.5%

Compound	IC50 [1]	FoxP3 expressing cells [2]
O=c1cc(-c2ccc(O)cc2)oc2c([C@@H]3O[C@H](CO)[C@@H](O)[C@H](O)[C@H]3O)c(O)cc(O)c12 [Vitexin]	0.048 µM	–
CEPO: chemically modified EPO analog in which the Lys residues are carbamylated [reference compound]	–	69.3%
